Results on 4 compounds are retold here after patent publication US20260223845A1, “METHOD FOR PRODUCING TRYPTOPHAN DECOMPOSITION PRODUCT, METHOD FOR PRODUCING FORMYLKYNURENINE, METHOD FOR PRODUCING KYNURENINE, METHOD FOR PRODUCING TRYPTOPHAN RADICAL-CONTAINING AQUEOUS SOLUTION, AND BACTERICIDAL AQUEOUS SOLUTION” (NATIONAL UNIVERSITY CORPORATION TOKAI NATIONAL HIGHER …, priority 2023, published 2026).

One data set has as its system Escherichia coli. Kind of data set: Bactericidal effect test of redissolved HPLC fractions on Escherichia coli suspension, colony counting method. It is filed as cell-based. The following applies: component redissolved in ultrapure water, liquid temperature 24° C., mixed with Escherichia coli suspension, counted after 10 minutes; FIG. 5. On the procedure:
Each aqueous solution (liquid temperature: 24° C.) prepared by redissolving each component in ultrapure water was mixed with a suspension of Escherichia coli, and after 10 minutes, the viable cell count of Escherichia coli was measured by a colony counting method. The viable cell count of Escherichia coli was also measured in the same manner for the oxygen radical-unirradiated aqueous solution.

Data set [1] is described as follows: Bactericidal effect of oxygen radical-irradiated tryptophan-containing aqueous solution (previous research of the inventors; inference in Experimental Examples 1 to 3). It is filed as cell-based. The following applies: inferred from inactive FKYN, KYN, L-Trp fractions and ESR detection of Trp⋅. From the text:
Therefore, in this experimental example, an attempt was made to detect Trp⋅ by electron spin resonance (ESR) spectroscopy.
Here, as shown in FIG. 12 (b), it is known that Trp. is generated by the reaction between Trp and OH⋅. […] In the formulae in FIG. 12(b), X is indicated because it is thought that OH extracts H from Trp and X becomes H2O, but what is actually formed has not been accurately confirmed at this stage.
From the above-described Experimental Examples 1 to 3, it was confirmed that the substances primarily generated by irradiating the tryptophan-containing aqueous solution with oxygen radicals are FKYN and KYN. In addition, Trp⋅, considered to be a precursor of FKYN and KYN, was detected by ESR measurement from the oxygen radical-irradiated aqueous solution. Based on the above, it is considered that short-lived precursors of FKYN and KYN (Trp⋅ and Trp peroxide) are also expressed in large quantities by the oxygen radical irradiation in terms of total generation concentration, and it can be said that the above-described precursors are bactericidal substances.

Data set [2] can be described thus: Lifespan of tryptophan radical in aqueous solution. It is filed as physicochemical. To be noted: in oxygen radical-irradiated aqueous solution. The source says:
The precursor generated from Trp may be composed solely of Trp⋅, may be composed solely of Trp peroxide, or may include both Trp⋅ and Trp peroxide. […] Trp⋅ can be detected by electron spin resonance (ESR) spectroscopy. FKYN is generated by cleavage of a pyrrole ring in Trp peroxide. This cleavage occurs naturally in an aqueous solution. In other words, Trp peroxide decomposes on its own. Furthermore, since the generation of FKYN has been confirmed in the present disclosure, it is inferred that Trp peroxide is also generated, despite having a short lifespan. KYN is generated by the decomposition of FKYN.

The conditions of data set [3]: maintaining a temperature of 15° C. or lower; cited from earlier work.

Read-outs that look alike come from different tables or passages of the source.

In the case of `N[C@@H](Cc1c[nH]c2ccccc12)C(=O)O` [L-Trp, L-tryptophan], in the data set on Escherichia coli, the “bactericidal effect (viable cell count of Escherichia coli)” value is on record as “not bactericidal substances”.

For the compound `NC(CC(=O)c1ccccc1NC=O)C(=O)O` (stereo not drawn) [component P1, formylkynurenine], the “bactericidal effect (viable cell count of Escherichia coli)” value with Escherichia coli was “not bactericidal substances”.

Consider `Nc1ccccc1C(=O)CC(N)C(=O)O` (stereo not drawn) [component P2, kynurenine], for which the “bactericidal effect (viable cell count of Escherichia coli)” value in the data set with Escherichia coli is recorded as “not bactericidal substances”.

tryptophan radical [Trp⋅]: in data set [1], the bactericidal effect entry is “has a bactericidal effect”. Besides, the values for the lifespan entry in data set [2] and in data set [3] were “short-lived substance” and “can be extended”, respectively.
